For one assay, the system named is C4-2 cells. Kind of assay: MTS assay, growth inhibition and cytotoxicity, virus alone or with adriamycin. Type of assay: cell-based. The settings on record: adriamycin alone 0.1 μg/ml; by 72 hours. As to the method: 3-(4,5)-Dimethylthiazol-2-yl)-5-(3-carboxy-methoxyphenyl)-2-(4-sulfophenyl)-2H-tetrazolium (MTS) assay: The metabolic viability of the cells was monitored using a MTS assay kit (CellTiter 96) from Promega (Madison, Wis.). Briefly cells are seeded onto 96-well plates and cultured in the presence of test agents for indicated time intervals. A mixture of MTS and phenazine methosulfate (an electron-coupling reagent; final concentrations 333 μg/ml and 25 μM, respectively) is added, and cells are incubated for 30 minutes at 37° C. Formazan formed from the reduction of MTS is quantified by measurement of absorbance of the medium at 490 nm using a microplate reader (All data have been normalized to the background signals).
Combinatory studies of Adriamycin with Ad5-RV004.21 or Ad5-RV004 virus in C4-2 cells: Combination treatment of viruses with radiation or chemotherapy hold promise as a new strategy for cancer treatment. However, there are reports of attenuated cytotoxicity of CRAds when combined with chemotherapies (e.g., doxorubicin). […] Cell cytotoxicity is measured by MTS assay after 72 hours of treatment and followed every 24 hours for a total of 7 days. […] The predicted value for the combinatory effect can be calculated and is given by the dotted gray line.
On the technique in general: Tetrazolium dyes change colour on reduction, which living cells bring about.

In assay [1] the test system is p21/Waf-1 knockdown C4-2 cells. Kind of assay: Cell death of p21/Waf-1 knockdown C4-2 cells treated with drug. The class given is cell-based.

As for `COc1cccc2c1C(=O)c1c(O)c3c(c(O)c1C2=O)C[C@@](O)(C(=O)CO)C[C@@H]3O[C@H]1C[C@H](N)[C@H](O)[C@H](C)O1` [adriamycin], the C4-2 cells killed in the assay on C4-2 cells was ~50%. In assay [1], the “cell death in p21/Waf-1 knockdown C4-2 cells compared to the wild type cell lines” value is recorded as “increase in cell death”.
